According to PubChem BioAssay (NCI):
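GI50: concentration for 50% inhibition of growth. TGI marks complete inhibition of growth.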

Assays:
Assay in all cases: NCI-60 cell line screen, 384-well format
[1] = tested on: 786-0 renal
[2] = tested on: COLO 205 colon
[3] = tested on: A498 renal
[4] = tested on: SF-268 CNS
[5] = tested on: HT29 colon
[6] = tested on: SK-MEL-5 melanoma
[7] = tested on: PC-3 prostate
[8] = tested on: TK-10 renal
[9] = tested on: T-47D breast
[10] = tested on: HCT-116 colon
[11] = tested on: HOP-92 NSCLC
[12] = tested on: CAKI-1 renal
[13] = tested on: SF-295 CNS
[14] = tested on: NCI-H322M lung
[15] = tested on: SW-620 colon
[16] = tested on: EKVX NSCLC
[17] = tested on: UACC-257 melanoma
[18] = tested on: SK-MEL-2 melanoma
[19] = tested on: MDA-MB-435 melanoma
[20] = tested on: UO-31 renal
[21] = tested on: MDA-MB-231 breast
[22] = tested on: MCF7 breast
[23] = tested on: OVCAR-5 ovarian
[24] = tested on: RXF 393 renal
[25] = tested on: ACHN renal
[26] = tested on: K-562 leukemia
[27] = tested on: OVCAR-4 ovarian
[28] = tested on: NCI-H23 lung
[29] = tested on: HL-60(TB) leukemia
[30] = tested on: SR leukemia
[31] = tested on: IGROV1 ovarian
[32] = tested on: SN12C renal
[33] = tested on: NCI-H226 lung
[34] = tested on: U251 glioblastoma
[35] = tested on: MOLT-4 leukemia
[36] = tested on: HCT-15 colon
[37] = tested on: OVCAR-3 ovarian
[38] = tested on: SNB-75 CNS
[39] = tested on: DU-145 prostate
[40] = tested on: BT-549 breast
[41] = tested on: HOP-62 NSCLC
[42] = tested on: MALME-3M melanoma
[43] = tested on: NCI-H522 lung
[44] = tested on: OVCAR-8 ovarian
[45] = tested on: KM12 colon
[46] = tested on: SNB-19 CNS
[47] = tested on: MDA-MB-468 breast
[48] = tested on: HS 578T breast
[49] = tested on: UACC-62 melanoma
[50] = tested on: SF-539 CNS
[51] = tested on: NCI-H460 NSCLC
[52] = tested on: SK-OV-3 ovarian
[53] = tested on: A549 NSCLC
[54] = tested on: M14 melanoma
[55] = tested on: SK-MEL-28 melanoma

Q: With CC(C)[C@@H](CS(=O)(=O)C(C)C)N1C(=O)[C@@](C)(CC(=O)O)C[C@H](c2cccc(Cl)c2)[C@H]1c1ccc(Cl)cc1 as the molecule, how does the GI50 [1] read?
A: 36.5 µM

Q: And the TGI [1]?
A: > 100 µM

Q: And the GI50 [2]?
A: 52.4 µM

Q: And the TGI [2]?
A: > 100 µM

Q: And the GI50 [3]?
A: 0.295 µM

Q: And the TGI [3]?
A: 11.3 µM

Q: What about the GI50 [4] of the same molecule?
A: 28.9 µM

Q: What about the TGI [4] of the same molecule?
A: > 100 µM

Q: And the GI50 [5]?
A: 37 µM

Q: What about the TGI [5] of the same molecule?
A: > 100 µM

Q: What about the GI50 [6] of the same molecule?
A: 0.994 µM

Q: And the TGI [6]?
A: 15 µM

Q: And the GI50 [7]?
A: 14 µM

Q: And the TGI [7]?
A: 62.7 µM

Q: What about the GI50 [8] of the same molecule?
A: 35.2 µM

Q: And the TGI [8]?
A: > 100 µM

Q: What about the GI50 [9] of the same molecule?
A: 23.3 µM

Q: And the TGI [9]?
A: 73.2 µM

Q: And the GI50 [10]?
A: 0.334 µM

Q: And the TGI [10]?
A: 15.1 µM

Q: What about the GI50 [11] of the same molecule?
A: 17.7 µM

Q: What about the TGI [11] of the same molecule?
A: 40.4 µM

Q: What about the GI50 [12] of the same molecule?
A: 0.204 µM

Q: What about the TGI [12] of the same molecule?
A: 13.1 µM

Q: What about the GI50 [13] of the same molecule?
A: 14.7 µM

Q: What about the TGI [13] of the same molecule?
A: 38.7 µM

Q: What about the GI50 [14] of the same molecule?
A: 37.1 µM

Q: And the TGI [14]?
A: 94.1 µM

Q: What about the GI50 [15] of the same molecule?
A: 37 µM

Q: And the TGI [15]?
A: > 100 µM

Q: And the GI50 [16]?
A: 18.9 µM

Q: What about the TGI [16] of the same molecule?
A: 51.5 µM

Q: And the GI50 [17]?
A: 0.203 µM

Q: What about the TGI [17] of the same molecule?
A: 0.671 µM

Q: What about the GI50 [18] of the same molecule?
A: 19.1 µM

Q: And the TGI [18]?
A: 34.6 µM

Q: What about the GI50 [19] of the same molecule?
A: 20.7 µM

Q: What about the TGI [19] of the same molecule?
A: 46 µM

Q: And the GI50 [20]?
A: 0.199 µM

Q: What about the TGI [20] of the same molecule?
A: 0.445 µM

Q: And the GI50 [21]?
A: 20.5 µM

Q: What about the TGI [21] of the same molecule?
A: > 100 µM

Q: What about the GI50 [22] of the same molecule?
A: 0.157 µM

Q: And the TGI [22]?
A: 0.573 µM

Q: And the GI50 [23]?
A: 38 µM

Q: What about the TGI [23] of the same molecule?
A: > 100 µM

Q: What about the GI50 [24] of the same molecule?
A: 13.1 µM

Q: And the TGI [24]?
A: 36 µM

Q: And the GI50 [25]?
A: 0.228 µM

Q: What about the TGI [25] of the same molecule?
A: 0.949 µM

Q: And the GI50 [26]?
A: 20.6 µM

Q: And the TGI [26]?
A: > 100 µM

Q: What about the GI50 [27] of the same molecule?
A: 18.3 µM

Q: And the TGI [27]?
A: > 100 µM

Q: And the GI50 [28]?
A: 14.6 µM

Q: What about the TGI [28] of the same molecule?
A: 36.9 µM

Q: And the GI50 [29]?
A: 17.3 µM

Q: And the TGI [29]?
A: 31.2 µM

Q: What about the GI50 [30] of the same molecule?
A: 0.053 µM

Q: What about the TGI [30] of the same molecule?
A: 0.187 µM

Q: And the GI50 [31]?
A: 12.1 µM

Q: And the TGI [31]?
A: > 100 µM

Q: And the GI50 [32]?
A: 32.1 µM

Q: What about the TGI [32] of the same molecule?
A: > 100 µM

Q: What about the GI50 [33] of the same molecule?
A: 0.148 µM

Q: What about the TGI [33] of the same molecule?
A: 0.324 µM

Q: What about the GI50 [34] of the same molecule?
A: 15.5 µM

Q: What about the TGI [34] of the same molecule?
A: 37.8 µM

Q: And the GI50 [35]?
A: 0.117 µM

Q: And the TGI [35]?
A: 0.246 µM

Q: And the GI50 [36]?
A: 26.4 µM

Q: What about the TGI [36] of the same molecule?
A: 78.3 µM

Q: What about the GI50 [37] of the same molecule?
A: 14.5 µM

Q: What about the TGI [37] of the same molecule?
A: 29.7 µM

Q: And the GI50 [38]?
A: 26.1 µM

Q: What about the TGI [38] of the same molecule?
A: > 100 µM

Q: What about the GI50 [39] of the same molecule?
A: 27.2 µM

Q: What about the TGI [39] of the same molecule?
A: > 100 µM

Q: What about the GI50 [40] of the same molecule?
A: 17.5 µM

Q: And the TGI [40]?
A: 34.4 µM

Q: What about the GI50 [41] of the same molecule?
A: 21.5 µM

Q: And the TGI [41]?
A: 51.1 µM

Q: What about the GI50 [42] of the same molecule?
A: 0.45 µM

Q: And the TGI [42]?
A: 19.8 µM

Q: And the GI50 [43]?
A: 20.1 µM

Q: And the TGI [43]?
A: 49.3 µM

Q: And the GI50 [44]?
A: 21.1 µM

Q: And the TGI [44]?
A: 92.3 µM

Q: What about the GI50 [45] of the same molecule?
A: 0.319 µM

Q: What about the TGI [45] of the same molecule?
A: 10 µM

Q: And the GI50 [46]?
A: 41.7 µM

Q: What about the TGI [46] of the same molecule?
A: > 100 µM

Q: What about the GI50 [47] of the same molecule?
A: 6.07 µM

Q: And the TGI [47]?
A: 22.2 µM

Q: What about the GI50 [48] of the same molecule?
A: 15.5 µM

Q: What about the TGI [48] of the same molecule?
A: 32.8 µM

Q: What about the GI50 [49] of the same molecule?
A: 0.151 µM

Q: What about the TGI [49] of the same molecule?
A: 12.8 µM

Q: And the GI50 [50]?
A: 16.5 µM

Q: What about the TGI [50] of the same molecule?
A: 35.2 µM

Q: And the GI50 [51]?
A: 29.3 µM

Q: And the TGI [51]?
A: > 100 µM

Q: And the GI50 [52]?
A: 24 µM

Q: What about the TGI [52] of the same molecule?
A: 80.2 µM

Q: And the GI50 [53]?
A: 0.433 µM

Q: And the TGI [53]?
A: 13 µM

Q: What about the GI50 [54] of the same molecule?
A: 13.5 µM

Q: What about the TGI [54] of the same molecule?
A: 37.5 µM

Q: And the GI50 [55]?
A: 42.5 µM

Q: What about the TGI [55] of the same molecule?
A: > 100 µM
